ChEMBL document CHEMBL4673314, “Stabilization Strategies for Linear Minigastrin Analogues: Further Improvements via the Inclusion of Proline into the Peptide Sequence” (J Med Chem, 2020)
Non-standard residues stand in square brackets, D forms with d. Residues, ends and D or L forms follow the SMILES beside them. *: point of attachment. DOTA = O=C(O)CN1CCN(CC(=O)O)CCN(CC(=O)*)CCN(CC(=O)O)CC1; 1Nal = N[C@@H](Cc1cccc2ccccc12)C(=O)O; NMeNle = CCCC[C@H](NC)C(=O)O

Assay: Retention time of the compound by HPLC method
Assay type: physicochemical

| Compound | Retention_time |
| --- | --- |
| CCCC[C@@H](C(=O)N[C@@H](CC(=O)O)C(=O)N[C@@H](Cc1cccc2ccccc12)C(N)=O)N(C)C(=O)[C@H](Cc1c[nH]c2ccccc12)NC(=O)CNC(=O)[C@H](Cc1ccc(O)cc1)NC(=O)[C@@H]1CCCN1C(=O)[C@@H](CCC(=O)O)NC(=O)CN1CCN(CC(=O)O)CCN(CC(=O)O)CCN(CC(=O)O)CC1 ({DOTA}-[dE]PYGW[NMeNle]D[1Nal]-NH2) | 16.9 min |
| CCCC[C@@H](C(=O)N[C@@H](CC(=O)O)C(=O)N[C@@H](Cc1cccc2ccccc12)C(N)=O)N(C)C(=O)[C@H](Cc1c[nH]c2ccccc12)NC(=O)[C@@H]1CCCN1C(=O)[C@H](Cc1ccc(O)cc1)NC(=O)[C@H](C)NC(=O)[C@@H](CCC(=O)O)NC(=O)CN1CCN(CC(=O)O)CCN(CC(=O)O)CCN(CC(=O)O)CC1 ({DOTA}-[dE]AYPW[NMeNle]D[1Nal]-NH2) | 16.8 min |
| CCCC[C@@H](C(=O)N[C@@H](CC(=O)O)C(=O)N[C@@H](Cc1cccc2ccccc12)C(N)=O)N(C)C(=O)[C@H](Cc1c[nH]c2ccccc12)NC(=O)CNC(=O)[C@@H]1CCCN1C(=O)[C@H](Cc1ccc(O)cc1)NC(=O)[C@@H](CCC(=O)O)NC(=O)CN1CCN(CC(=O)O)CCN(CC(=O)O)CCN(CC(=O)O)CC1 ({DOTA}-[dE]YPGW[NMeNle]D[1Nal]-NH2) | 16.9 min |
